According to patent US20250177398A1, “CARBONIC ANHYDRASE ENZYMES FOR REGULATING MAST CELL HEMATOPOIESIS AND TYPE 2 INFLAMMATION” (RUTGERS, THE STATE UNIVERSITY OF NEW JERSEY, priority 2015, published 2025):

Experiments:
[1] = tested on: food allergy-induced mast cell responses; assay: Food allergy-like disease (OVA sensitization and challenge); format: in vivo, mouse; details: OVA sensitized and challenged mice
Protocol: RNA from sections of small intestine was isolated by homogenization in TRIzol (Invitrogen) followed by phenol-chloroform extraction and isopropanol precipitation. cDNA was generated per standard protocol with Superscript reverse transcriptase (Invitrogen) and used as input for real-time PCR. Real-time data were analyzed using the ΔΔCT method using SYBR Green chemistry (Applied Biosystems) with β-actin serving as the endogenous housekeeping gene. All reactions were run on an ABI 7500 Fast Real-Time PCR System (Applied Biosystems). Samples were normalized to naïve controls. The following QuantiTech primer assays from Qiagen were used: Mcpt1 (QT00157864), IL-4 (QT00160678), IL-9 (QT00107555), Arg1 (QT00134288), […] (QT00254359), Car1 (QT01058113) and Car2 (QT00494592). Single cell suspensions were made from mesenteric, or skin draining lymph nodes. Lymph node cells were cultured in RPMI complete medium and treated with and without anti-CD3 (BD Pharmingen: clone 145-2C11) and anti-CD28 antibodies (BD Pharmingen: clone 37.51) for 72 hours. Standard sandwich ELISA (eBioscience) was performed to measure IL-4 (clones 11B11 and BVD6-24G2), IL-5 (clones TRFK5 and TRFK4) and IL-13 (clones eBio13A and eBio1316H) levels in the cell-free supernatants. Serum quantities of Mcpt1 and IgE were measured by commercial sandwich ELISA kits (BD Biosciences, eBioscience). […]

[2] = tested on: human CD34+ progenitor cells (mast cell development); assay: Human mast cell cultures from blood CD34+ progenitor cells; format: cell-based; details: human CD34+ cells with SCF, consistent across 5 donors
Text: Blood from healthy human donors was obtained from the New York Blood Center under protocols approved by the Rutgers Institutional Review Boards (IRB). Peripheral blood cells were isolated using a Ficoll gradient. CD34^+ cells were purified using a CD34 MicroBead isolation kit according to the manufacturer's protocol (Miltenyi Biotec, 130-048-702). 25-50×10^3 CD34^+ cells were placed in methocult ([…]) supplemented with stem cell factor (SCF), IL-6 and IL-3 as described previously (Saito, et al., 2006. Nat Protoc 1:2178-2183). Mast cell populations were evaluated on day 14 post-culture.

[3] = tested on: bone marrow-resident progenitor cells (mast cell and basophil development); assay: Murine mast cell and basophil developmental assay: BM progenitor cells cultured with IL-3; format: cell-based, mouse; details: BM cells + IL-3 10 ng/mL, 30 μg/mL MZ
Protocol: FIGS. 6A-6B. Bone marrow-resident progenitor cells were cultured in media, media treated with IL-3 (10 ng/ml), media treated with IL-3 and compound 8 (25 ng/ml) (FIG. 6A) or, media treated with IL-3 and compound 16 (25, 50, or 75 ng/ml) (FIG. 6B). On day 7 post-culture mast cells were identified by flow cytometric analysis. Results are representative of 2 independent experiments with at least 4 technical replicated per experiment. Statistical analysis was performed using a Student's t-test. (*,p<0.05) (***,p<0.001).
BM cells were isolated from the femur of WT mice and cultured in the presence of 10 ng/mL of IL-3 and vehicle (1:10 DMSO to RPMI complete media) or 30 μg/mL MZ. Fresh IL-3 with either vehicle or MZ were added daily, and mast cell and basophil populations were evaluated on day 7 post-culture.
Further, it is illustrated that genetically editing Car1 in stem cells via CRISPR/Cas9 technology decreases their capacity to develop into mature mast cells. […] However, whether inhibitors that selectively target Car1 can be used to inhibit mast cell development was unknown. […] Therefore, it was sought to be determined whether compound 8 and/or compound 16 could inhibit mast cell development from progenitor cell populations. To test this, the mast cell developmental assay was employed and bone marrow-resident progenitor cells were treated with IL-3 to promote mast cell development.

[4] = tested on: IL-3C-induced intestinal mast cell responses and peripheral basophilia; assay: IL-3C treatment of Rag1-deficient mice; format: in vivo, mouse; details: MZ 2 mg every day (FIG. 3G)
Protocol: Methods for maintenance, recovery, infection and isolation of Trichinella larvae were performed as previously described (Urban, et al., 2000. J Immunol 164:2046-2052). Mice were infected with 500 Trichinella muscle larvae by oral gavage and were treated with vehicle (1:5 DMSO to PBS) or 2-3 mg of MZ i.p. daily; mice were sacrificed between 10-11 days post-infection. At necropsy, single cell suspensions of mLNs and spleens were prepared as previously described (Giacomin, et al., 2012. Journal of immunology (Baltimore, Md.: 1950) 189:4371-4378) for basophil and mast cell analysis. Blood was collected and serum was isolated for analysis of Mcpt1 and IgE. Sections (1 cm) of small intestine (jejunum) were collected for real-time PCR and histological analysis. Remaining sections of small intestine were slit lengthwise, rinsed in PBS, and placed in HBSS for 4 hours at 37° C. and adult worms were quantified by microscopic analysis as previously described (Urban, et al., 2000. J Immunol 164:2046-2052). Rag1^−/− mice were injected (i.p.) with a combination of recombinant IL-3 (1 μg) and α-IL-3 antibody (0.5 μg) (BioLegend: clone MP2-8F8) in 200 μl PBS every 3 days for 7-10 days. IL-3C-treated mice were treated with MZ (2 mg) or vehicle (DMSO) every day.

Compound: CC(=O)/N=c1/sc(S(N)(=O)=O)nn1C [MZ, methazolamide]
- mast cell responses (serum Mcpt1, intestinal mcpt1 expression, intestinal mast cells by histology) ([1]; 2-3 mg MZ i.p. daily (FIG. 4A-D)): significantly decreased
- serum IgE levels ([1]; 2-3 mg MZ i.p. daily (FIG. 4E)): significantly increased
- percentages of mast cells ([2]; IL-6, IL-3, day 14 (FIGS. 4L-4M)): significantly reduced
- total numbers of mast cells ([2]; IL-6, IL-3, day 14 (FIGS. 4L-4N)): significantly reduced
- basophil numbers ([3]; day 7): decreased
- percentages of basophils ([3]; day 7 (FIG. 1F)): significantly increased
- mast cell populations compared to controls ([3]; day 7 post-culture (FIG. 1E)): significantly reduced
- IL-3C-induced basophilia [4]: no effect
- intestinal mast cell responses [4]: significantly reduced
